Measured values from patent US10442804B2, “Compounds for the treatment of hepatitis B virus infection” (Gilead Sciences, Inc., priority 2017, dated 2019).
Read-outs that look alike come from different tables or passages of the source.

Experiments:
MT-4 cytotoxicity assay = type: cell-based, human; conditions: human
[1] = system: HBV-infected NTCP-HepG2 cells, secreted HBsAg; assay: microbe, parasite or virus in culture; type: cell-based, hepatitis B virus (genotype D, AD38-derived); conditions: Hepatitis B virus, 120 h, read-out: NTCP HBsAg EC50
How it was run: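 NTCP-HepG2 cells were infected with genotype D HBV at 4000 genome equivalents/cell, then seeded 4 days post-infection with serially diluted compounds (1% DMSO) for 5 days. Supernatant HBsAg was measured by chemiluminescent MSD immunoassay. EC50 from four-parameter fit, geometric mean of ≥4 determinations.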

[2] = five days, Cell Titer Glo luminescence, read-out: MT-4 CC50
[3] = secreted HBsAg in supernatant after 5 days, geometric mean of minimum four determinations

| SMILES | CC50 at 5 days (MT-4 cytotoxicity assay; [2]) [µM] | EC50 [1, 3] [µM] | EC50 [1] [µM] | CC50 at 5 days (MT-4 cytotoxicity assay; MT-4 CC50) [µM] |
| --- | --- | --- | --- | --- |
| CCc1cc2c(cc1OCCCOC)[C@H]1CCC(C)(C)N1n1cc(C(=O)O)c(=O)cc1-2 [Example 63, (R)-11-Ethyl-12-(3-methoxypropoxy)-3,3-dimethyl-8-oxo-2,3,8,13b-tetrahydro-1H-pyrido[2,1-a]pyrrolo[1,2-c]phthalazine-7-carboxylic acid] | > 10 | 0.00034 | – | – |
| COc1cc2c(cc1OCCC(C)(C)OC)[C@H]1CCC(C)(C)N1n1cc(C(=O)O)c(=O)cc1-2 [Example 64, (R)-11-methoxy-12-(3-methoxy-3-methylbutoxy)-3,3-dimethyl-8-oxo-2,3,8,13b-tetrahydro-1H-pyrido[2,1-a]pyrrolo[1,2-c]phthalazine-7-carboxylic acid] | > 10 | 0.00084 | – | – |
| COc1cc2c(cc1OCCCOC(C)(C)C)[C@H]1CCC(C)(C)N1n1cc(C(=O)O)c(=O)cc1-2 [Example 65, (R)-12-(3-(tert-butoxy)propoxy)-11-methoxy-3,3-dimethyl-8-oxo-2,3,8,13b-tetrahydro-1H-pyrido[2,1-a]pyrrolo[1,2-c]phthalazine-7-carboxylic acid] | > 10 | 0.00041 | – | – |
| CC1(C)CC[C@@H]2c3cc(OCC4COC4)c(C4CC4)cc3-c3cc(=O)c(C(=O)O)cn3N21 [Example 66, (R)-11-cyclopropyl-3,3-dimethyl-12-(oxetan-3-ylmethoxy)-8-oxo-2,3,8,13b-tetrahydro-1H-pyrido[2,1-a]pyrrolo[1,2-c]phthalazine-7-carboxylic acid] | > 10 | 0.00097 | – | – |
| COCCCOc1c(OC)cc2c(c1F)[C@H]1CCC(C)(C)N1n1cc(C(=O)O)c(=O)cc1-2 [Example 67, (R)-13-fluoro-11-methoxy-12-(3-methoxypropoxy)-3,3-dimethyl-8-oxo-2,3,8,13b-tetrahydro-1H-pyrido[2,1-a]pyrrolo[1,2-c]phthalazine-7-carboxylic acid] | > 10 | 0.0053 | – | – |
| COc1cc2c(cc1C#Cc1cnc3cccnn13)[C@H]1CCC(C)(C)N1n1cc(C(=O)O)c(=O)cc1-2 [Example 68, (R)-12-(imidazo[1,2-b]pyridazin-3-ylethynyl)-11-methoxy-3,3-dimethyl-8-oxo-2,3,8,13b-tetrahydro-1H-pyrido[2,1-a]pyrrolo[1,2-c]phthalazine-7-carboxylic acid] | > 10 | 0.0029 | – | – |
| COCCCOc1cc2c(cc1S(C)(=O)=O)-c1cc(=O)c(C(=O)O)cn1N1[C@@H]2CCC1(C)C [Example 69, (R)-12-(3-methoxypropoxy)-3,3-dimethyl-11-(methylsulfonyl)-8-oxo-2,3,8,13b-tetrahydro-1H-pyrido[2,1-a]pyrrolo[1,2-c]phthalazine-7-carboxylic acid] | > 10 | 0.052 | – | – |
| COCc1cc2c(cc1C#CC(C)(C)O)[C@H]1CCC(C)(C)N1n1cc(C(=O)O)c(=O)cc1-2 [Example 70, (R)-12-(3-hydroxy-3-methylbut-1-yn-1-yl)-11-(methoxymethyl)-3,3-dimethyl-8-oxo-2,3,8,13b-tetrahydro-1H-pyrido[2,1-a]pyrrolo[1,2-c]phthalazine-7-carboxylic acid] | > 10 | 0.0211 | – | – |
| CC(C)(O)C#Cc1cc2c(cc1C1CC1)-c1cc(=O)c(C(=O)O)cn1N1[C@@H]2CCC1(C)C [Example 71, (R)-11-cyclopropyl-12-(3-hydroxy-3-methylbut-1-yn-1-yl)-3,3-dimethyl-8-oxo-2,3,8,13b-tetrahydro-1H-pyrido[2,1-a]pyrrolo[1,2-c]phthalazine-7-carboxylic acid] | > 10 | 0.0025 | – | – |
| COC(C)(C)C#Cc1cc2c(cc1C1CC1)-c1cc(=O)c(C(=O)O)cn1N1[C@@H]2CCC1(C)C [Example 72, (R)-11-cyclopropyl-12-(3-methoxy-3-methylbut-1-yn-1-yl)-3,3-dimethyl-8-oxo-2,3,8,13b-tetrahydro-1H-pyrido[2,1-a]pyrrolo[1,2-c]phthalazine-7-carboxylic acid] | 6.4 | 0.00095 | – | – |
| COCc1cc2c(cc1OCC13CC(C#N)(C1)C3)[C@H]1CCC(C)(C)N1n1cc(C(=O)O)c(=O)cc1-2 [Example 74, (R)-12-((3-cyanobicyclo[1.1.1]pentan-1-yl)methoxy)-11-(methoxymethyl)-3,3-dimethyl-8-oxo-2,3,8,13b-tetrahydro-1H-pyrido[2,1-a]pyrrolo[1,2-c]phthalazine-7-carboxylic acid] | > 10 | 0.0038 | – | – |
| CC1(C)CC[C@@H]2c3cc(OCc4ccccc4)c(OC(F)(F)F)cc3-c3cc(=O)c(C(=O)O)cn3N21 [Example 75, (R)-12-(benzyloxy)-3,3-dimethyl-8-oxo-11-(trifluoromethoxy)-2,3,8,13b-tetrahydro-1H-pyrido[2,1-a]pyrrolo[1,2-c]phthalazine-7-carboxylic acid] | 5 | – | 0.0061 | – |
| CC1(C)CC[C@@H]2c3cc(-c4cnn(C(F)F)c4)c(Cl)cc3-c3cc(=O)c(C(=O)O)cn3N21 [Example 76, (R)-11-chloro-12-(1-(difluoromethyl)-1H-pyrazol-4-yl)-3,3-dimethyl-8-oxo-2,3,8,13b-tetrahydro-1H-pyrido[2,1-a]pyrrolo[1,2-c]phthalazine-7-carboxylic acid] | 4.4 | 0.0063 | – | – |
| COCCCOc1cc2c(cc1C1COC1)-c1cc(=O)c(C(=O)O)cn1N1[C@@H]2CCC1(C)C [Example 77, (R)-12-(3-methoxypropoxy)-3,3-dimethyl-11-(oxetan-3-yl)-8-oxo-2,3,8,13b-tetrahydro-1H-pyrido[2,1-a]pyrrolo[1,2-c]phthalazine-7-carboxylic acid] | > 10 | 0.0125 | – | – |
| COCCOCc1cc2c(cc1OC)-c1cc(=O)c(C(=O)O)cn1N1[C@@H]2CCC1(C)C [Example 78, (R)-11-methoxy-12-((2-methoxyethoxy)methyl)-3,3-dimethyl-8-oxo-2,3,8,13b-tetrahydro-1H-pyrido[2,1-a]pyrrolo[1,2-c]phthalazine-7-carboxylic acid] | > 10 | 0.07 | – | – |
| COCCCOc1cc2c(cc1OC(F)(F)F)-c1cc(=O)c(C(=O)O)cn1N1[C@@H]2CCC1(C)C [Example 79, (R)-12-(3-methoxypropoxy)-3,3-dimethyl-8-oxo-11-(trifluoromethoxy)-2,3,8,13b-tetrahydro-1H-pyrido[2,1-a]pyrrolo[1,2-c]phthalazine-7-carboxylic acid] | > 10 | 0.0011 | – | – |
| COCCCOc1cc2c(cc1Cl)-c1cc(=O)c(C(=O)O)cn1N1[C@@H]2CCC1(COC)COC [Example 80, (R)-11-chloro-3,3-bis(methoxymethyl)-12-(3-methoxypropoxy)-8-oxo-2,3,8,13b-tetrahydro-1H-pyrido[2,1-a]pyrrolo[1,2-c]phthalazine-7-carboxylic acid] | > 10 | 0.045 | – | – |
| COCCCOc1cc2c(cc1Cl)-c1cc(=O)c(C(=O)O)cn1N1[C@@H]2CCC12COC(C)(C)OC2 [Example 81, (R)-11-chloro-12-(3-methoxypropoxy)-2′,2′-dimethyl-8-oxo-1,2,8,13b-tetrahydrospiro[pyrido[2,1-a]pyrrolo[1,2-c]phthalazine-3,5′-[1,3]dioxane]-7-carboxylic acid] | > 10 | 0.386 | – | – |
| COCCCOc1cc2c(cc1Cl)-c1cc(=O)c(C(=O)O)cn1N1[C@@H]2CCC12COC2 [Example 82, (R)-11′-chloro-12′-(3-methoxypropoxy)-8′-oxo-1′,2′,8′,13b′-tetrahydrospiro[oxetane-3,3′-pyrido[2,1-a]pyrrolo[1,2-c]phthalazine]-7′-carboxylic acid] | – | 0.072 | – | > 10 |
| COc1cc2c(cc1C#CC(C)(C)S(C)(=O)=O)[C@H]1CCC(C)(C)N1n1cc(C(=O)O)c(=O)cc1-2 [Example 83, (R)-11-methoxy-3,3-dimethyl-12-(3-methyl-3-(methylsulfonyl)but-1-yn-1-yl)-8-oxo-2,3,8,13b-tetrahydro-1H-pyrido[2,1-a]pyrrolo[1,2-c]phthalazine-7-carboxylic acid] | > 10 | 0.0096 | – | – |
| COc1cc2c(cc1C#CC(C)(C)S(=O)(=O)C1CC1)[C@H]1CCC(C)(C)N1n1cc(C(=O)O)c(=O)cc1-2 [Example 84, (R)-12-(3-(cyclopropylsulfonyl)-3-methylbut-1-yn-1-yl)-11-methoxy-3,3-dimethyl-8-oxo-2,3,8,13b-tetrahydro-1H-pyrido[2,1-a]pyrrolo[1,2-c]phthalazine-7-carboxylic acid] | > 10 | 0.0112 | – | – |
| COC(C)(C)C#Cc1cc2c(cc1Cl)-c1cc(=O)c(C(=O)O)cn1N1[C@@H]2CCC12CC2 [Example 85, (R)-11′-chloro-12′-(3-methoxy-3-methylbut-1-yn-1-yl)-8′-oxo-1′,2′,8′,13b′-tetrahydrospiro[cyclopropane-1,3′-pyrido[2,1-a]pyrrolo[1,2-c]phthalazine]-7′-carboxylic acid] | – | 0.0041 | – | > 10 |
| O=C(O)c1cn2c(cc1=O)-c1cc(Cl)c(-c3cnn(C4COC4)c3)cc1[C@H]1CCC3(CC3)N12 [Example 86, (R)-11′-chloro-12′-(1-(oxetan-3-yl)-1H-pyrazol-4-yl)-8′-oxo-1′,2′,8′,13b′-tetrahydrospiro[cyclopropane-1,3′-pyrido[2,1-a]pyrrolo[1,2-c]phthalazine]-7′-carboxylic acid] | – | 0.0248 | – | > 10 |
| COCCCOc1cc2c(cc1COC)-c1cc(=O)c(C(=O)O)cn1N1[C@@H]2CCC12CC2 [Example 87, (R)-11′-(methoxymethyl)-12′-(3-methoxypropoxy)-8′-oxo-1′,2′,8′,13b′-tetrahydrospiro[cyclopropane-1,3′-pyrido[2,1-a]pyrrolo[1,2-c]phthalazine]-7′-carboxylic acid] | – | 0.0042 | – | > 10 |
